Data taken from article PMC2927429, “Novel Naphthalene-Based Inhibitors of Trypanosoma brucei RNA Editing Ligase 1” (PLoS Neglected Tropical Diseases, 2010).
Where two headings read alike, the source gives them in different places.

Target: T1, RNA editing ligase 1 (TbREL1) (Trypanosoma brucei, UniProt P86926)
T1 construct: gene REL1; recombinant full-length TbREL1, C-terminal TAP tag, Sf9 cells
T1 sequence (P86926 1-469): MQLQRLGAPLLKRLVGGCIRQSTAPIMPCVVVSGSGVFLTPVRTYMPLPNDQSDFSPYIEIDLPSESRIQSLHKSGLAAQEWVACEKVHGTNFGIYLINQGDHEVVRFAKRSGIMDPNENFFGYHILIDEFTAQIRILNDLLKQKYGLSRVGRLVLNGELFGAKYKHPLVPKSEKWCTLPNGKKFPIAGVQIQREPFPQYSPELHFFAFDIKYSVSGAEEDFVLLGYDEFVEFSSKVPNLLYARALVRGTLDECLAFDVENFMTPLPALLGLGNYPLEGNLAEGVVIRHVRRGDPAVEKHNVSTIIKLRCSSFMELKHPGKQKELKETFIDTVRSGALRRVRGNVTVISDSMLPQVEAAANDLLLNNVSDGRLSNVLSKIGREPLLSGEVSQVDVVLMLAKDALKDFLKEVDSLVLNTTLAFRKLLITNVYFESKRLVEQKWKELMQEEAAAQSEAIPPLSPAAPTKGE
Assay: inhibition of TbREL1 adenylylation with [α-32P]ATP, SDS/PAGE and phosphorimaging, […] Triton X-100
Format: biochemical

SMILES	IC50 (read-out: IC50) [µM]	IC50 [µM]
O=C(Nc1ccc2c(O)c(/N=N/c3ccc4c(O)cc(S(=O)(=O)O)cc4c3)c(S(=O)(=O)O)cc2c1)c1ccccc1 [V1, (E)-7-benzamido-4-hydroxy-3-((5-hydroxy-7-sulfonaphthalen-2-yl)diazenyl)naphthalene-2-sulfonic acid]	2.16 ± 1.2	
Nc1ccc2c(O)c(/N=N/c3ccc4c(O)cc(S(=O)(=O)O)cc4c3)c(S(=O)(=O)O)cc2c1 [V2, (E)-7-amino-4-hydroxy-3-((5-hydroxy-7-sulfonaphthalen-2-yl)diazenyl)naphthalene-2-sulfonic acid]	1.53 ± 1.17	
O=S(=O)(O)c1cc(O)c2ccc(Nc3ccc4c(O)cc(S(=O)(=O)O)cc4c3)cc2c1 [V3, Di-J acid]	8.36 ± 1.71	
O=S(=O)(O)c1cc(/N=N/c2c(O)ccc3ccccc23)c(O)c(/N=N/c2c(O)ccc3cc(S(=O)(=O)O)ccc23)c1 [V4, Mordant Black 25]		1.59 ± 1.1
